Measurements reported in ChEMBL document CHEMBL4507266, “Data for DCP probe BAY-784” (2021).

What was measured:
[1] = target: Serine/threonine-protein kinase pim-3 (Homo sapiens) (UniProt Q86V86); settings: Compound concentration 1000.0 nM
[2] = target: Tyrosine-protein kinase HCK (Homo sapiens) (UniProt P08631); settings: Compound concentration 1000.0 nM
[3] = target: Serine/threonine-protein kinase PAK 6 (Homo sapiens) (UniProt Q9NQU5); settings: Compound concentration 1000.0 nM
[4] = target: Serine/threonine-protein kinase tousled-like 2 (Homo sapiens) (UniProt Q86UE8); settings: Compound concentration 1000.0 nM
[5] = target: Dual specificity protein kinase TTK (Homo sapiens) (UniProt P33981); settings: Compound concentration 1000.0 nM
[6] = target: Calcium/calmodulin-dependent protein kinase type 1G (Homo sapiens) (UniProt Q96NX5); settings: Compound concentration 1000.0 nM
[7] = tested on: Hepatocyte growth factor receptor (Homo sapiens), P08581 [M1250T]; settings: Compound concentration 1000.0 nM
[8] = target: Non-receptor tyrosine-protein kinase TYK2 (Homo sapiens) (UniProt P29597); settings: Compound concentration 1000.0 nM
[9] = target: Serine/threonine-protein kinase NIM1 (Homo sapiens) (UniProt Q8IY84); settings: Compound concentration 1000.0 nM
[10] = target: cGMP-dependent protein kinase 1 (Homo sapiens) (UniProt Q13976); settings: Compound concentration 1000.0 nM
[11] = target: Dual specificity mitogen-activated protein kinase kinase 2 (Homo sapiens) (UniProt P36507); settings: Compound concentration 1000.0 nM
[12] = target: Protein kinase C epsilon type (Homo sapiens) (UniProt Q02156); settings: Compound concentration 1000.0 nM
[13] = target: Myosin light chain kinase (Homo sapiens) (UniProt Q32MK0); settings: Compound concentration 1000.0 nM
[14] = target: Serine/threonine-protein kinase MAK (Homo sapiens) (UniProt P20794); settings: Compound concentration 1000.0 nM
[15] = target: Tyrosine-protein kinase TXK (Homo sapiens) (UniProt P42681); settings: Compound concentration 1000.0 nM
[16] = target: Mitogen-activated protein kinase 6 (Homo sapiens) (UniProt Q16659); settings: Compound concentration 1000.0 nM
[17] = tested on: Mast/stem cell growth factor receptor Kit (Homo sapiens), P10721 [V559D,V654A]; settings: Compound concentration 1000.0 nM
[18] = target: Glycogen synthase kinase-3 beta (Homo sapiens) (UniProt P49841); settings: Compound concentration 1000.0 nM
[19] = target: T1, Muscarinic acetylcholine receptor M5 (Homo sapiens) (UniProt P08912); settings: Compound concentration 10.0 uM
T1 sequence (whole entry): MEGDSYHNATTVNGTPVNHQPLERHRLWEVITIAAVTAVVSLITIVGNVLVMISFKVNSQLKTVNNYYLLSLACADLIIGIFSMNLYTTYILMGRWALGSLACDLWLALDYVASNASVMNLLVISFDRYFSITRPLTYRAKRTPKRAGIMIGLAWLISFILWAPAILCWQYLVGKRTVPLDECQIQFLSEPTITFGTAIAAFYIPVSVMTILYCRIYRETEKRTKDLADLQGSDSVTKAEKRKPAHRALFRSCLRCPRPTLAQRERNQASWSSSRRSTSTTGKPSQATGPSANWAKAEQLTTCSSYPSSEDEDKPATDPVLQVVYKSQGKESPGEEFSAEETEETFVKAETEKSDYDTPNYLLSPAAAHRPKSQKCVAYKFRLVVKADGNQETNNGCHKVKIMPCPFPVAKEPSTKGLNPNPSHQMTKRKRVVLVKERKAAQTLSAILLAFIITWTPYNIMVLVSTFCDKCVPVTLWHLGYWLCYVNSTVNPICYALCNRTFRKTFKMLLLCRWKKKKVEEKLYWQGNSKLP

[20] = target: Aurora kinase B (Homo sapiens) (UniProt Q96GD4); settings: Compound concentration 1000.0 nM
[21] = tested on: Tyrosine-protein kinase ABL1 (Homo sapiens), P00519 [Q252H]; settings: Compound concentration 1000.0 nM
[22] = target: Tyrosine-protein kinase receptor TYRO3 (Homo sapiens) (UniProt Q06418); settings: Compound concentration 1000.0 nM
[23] = target: Serine/threonine-protein kinase DCLK1 (Homo sapiens) (UniProt O15075); settings: Compound concentration 1000.0 nM
[24] = target: Interleukin-1 receptor-associated kinase 1 (Homo sapiens) (UniProt P51617); settings: Compound concentration 1000.0 nM
[25] = target: Dual specificity mitogen-activated protein kinase kinase 4 (Homo sapiens) (UniProt P45985); settings: Compound concentration 1000.0 nM
[26] = target: Mitogen-activated protein kinase kinase kinase 12 (Homo sapiens) (UniProt Q12852); settings: Compound concentration 1000.0 nM
[27] = target: Uncharacterized serine/threonine-protein kinase SBK3 (Homo sapiens) (UniProt P0C264); settings: Compound concentration 1000.0 nM
[28] = target: Mitogen-activated protein kinase 3 (Homo sapiens) (UniProt P27361); settings: Compound concentration 1000.0 nM
[29] = target: Serine/threonine-protein kinase NLK (Homo sapiens) (UniProt Q9UBE8); settings: Compound concentration 1000.0 nM
[30] = target: Serine/threonine-protein kinase Nek2 (Homo sapiens) (UniProt P51955); settings: Compound concentration 1000.0 nM
[31] = target: 3-phosphoinositide-dependent protein kinase 1 (Homo sapiens) (UniProt O15530); settings: Compound concentration 1000.0 nM
[32] = target: Receptor-interacting serine/threonine-protein kinase 4 (Homo sapiens) (UniProt P57078); settings: Compound concentration 1000.0 nM
[33] = target: Tyrosine-protein kinase receptor Tie-1 (Homo sapiens) (UniProt P35590); settings: Compound concentration 1000.0 nM
[34] = target: Myosin light chain kinase family member 4 (Homo sapiens) (UniProt Q86YV6); settings: Compound concentration 1000.0 nM
[35] = target: AP2-associated protein kinase 1 (Homo sapiens) (UniProt Q2M2I8); settings: Compound concentration 1000.0 nM
[36] = target: Eukaryotic translation initiation factor 2-alpha kinase 1 (Homo sapiens) (UniProt Q9BQI3); settings: Compound concentration 1000.0 nM
[37] = target: Cyclin-dependent kinase 3 (Homo sapiens) (UniProt Q00526); settings: Compound concentration 1000.0 nM
[38] = target: Serine/threonine-protein kinase PAK 1 (Homo sapiens) (UniProt Q13153); settings: Compound concentration 1000.0 nM

Sequence of Serine/threonine-protein kinase tousled-like 2 (Homo sapiens) (Q86UE8 whole entry, looked up): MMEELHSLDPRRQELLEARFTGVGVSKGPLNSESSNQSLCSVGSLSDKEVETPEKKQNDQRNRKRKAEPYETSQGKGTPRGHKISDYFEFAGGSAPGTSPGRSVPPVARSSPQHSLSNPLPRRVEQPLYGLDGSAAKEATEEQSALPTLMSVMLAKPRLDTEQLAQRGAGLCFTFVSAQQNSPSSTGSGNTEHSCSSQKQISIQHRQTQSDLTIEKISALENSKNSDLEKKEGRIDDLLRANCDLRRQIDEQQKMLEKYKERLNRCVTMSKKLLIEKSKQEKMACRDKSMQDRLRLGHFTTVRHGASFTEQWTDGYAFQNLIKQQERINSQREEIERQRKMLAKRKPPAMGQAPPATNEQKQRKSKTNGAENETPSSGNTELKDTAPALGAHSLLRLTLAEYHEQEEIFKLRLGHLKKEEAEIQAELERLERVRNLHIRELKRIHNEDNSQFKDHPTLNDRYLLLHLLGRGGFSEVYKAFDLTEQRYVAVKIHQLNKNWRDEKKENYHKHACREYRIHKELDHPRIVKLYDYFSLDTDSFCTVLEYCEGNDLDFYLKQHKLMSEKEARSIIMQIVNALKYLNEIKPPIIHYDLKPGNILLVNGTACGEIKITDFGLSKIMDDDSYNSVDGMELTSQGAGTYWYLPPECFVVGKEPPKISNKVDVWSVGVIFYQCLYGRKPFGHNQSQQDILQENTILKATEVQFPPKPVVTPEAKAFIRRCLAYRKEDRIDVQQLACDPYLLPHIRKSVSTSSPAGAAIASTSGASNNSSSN
Sequence of 3-phosphoinositide-dependent protein kinase 1 (Homo sapiens) (O15530 whole entry): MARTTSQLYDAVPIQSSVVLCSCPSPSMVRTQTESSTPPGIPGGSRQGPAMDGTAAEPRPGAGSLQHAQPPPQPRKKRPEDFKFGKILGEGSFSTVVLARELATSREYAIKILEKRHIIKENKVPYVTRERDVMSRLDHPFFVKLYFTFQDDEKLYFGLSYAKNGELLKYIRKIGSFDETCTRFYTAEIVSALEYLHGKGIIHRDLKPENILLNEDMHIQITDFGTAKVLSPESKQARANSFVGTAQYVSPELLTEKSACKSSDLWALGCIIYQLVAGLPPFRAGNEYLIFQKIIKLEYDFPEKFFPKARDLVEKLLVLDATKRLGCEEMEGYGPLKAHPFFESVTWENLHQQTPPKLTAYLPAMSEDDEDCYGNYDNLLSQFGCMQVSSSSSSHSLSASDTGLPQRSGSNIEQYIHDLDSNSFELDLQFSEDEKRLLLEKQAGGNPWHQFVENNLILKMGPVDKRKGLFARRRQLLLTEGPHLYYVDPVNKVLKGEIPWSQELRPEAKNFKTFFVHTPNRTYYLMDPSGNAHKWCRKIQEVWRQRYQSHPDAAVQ
Sequence of Protein kinase C epsilon type (Homo sapiens) (Q02156 whole entry): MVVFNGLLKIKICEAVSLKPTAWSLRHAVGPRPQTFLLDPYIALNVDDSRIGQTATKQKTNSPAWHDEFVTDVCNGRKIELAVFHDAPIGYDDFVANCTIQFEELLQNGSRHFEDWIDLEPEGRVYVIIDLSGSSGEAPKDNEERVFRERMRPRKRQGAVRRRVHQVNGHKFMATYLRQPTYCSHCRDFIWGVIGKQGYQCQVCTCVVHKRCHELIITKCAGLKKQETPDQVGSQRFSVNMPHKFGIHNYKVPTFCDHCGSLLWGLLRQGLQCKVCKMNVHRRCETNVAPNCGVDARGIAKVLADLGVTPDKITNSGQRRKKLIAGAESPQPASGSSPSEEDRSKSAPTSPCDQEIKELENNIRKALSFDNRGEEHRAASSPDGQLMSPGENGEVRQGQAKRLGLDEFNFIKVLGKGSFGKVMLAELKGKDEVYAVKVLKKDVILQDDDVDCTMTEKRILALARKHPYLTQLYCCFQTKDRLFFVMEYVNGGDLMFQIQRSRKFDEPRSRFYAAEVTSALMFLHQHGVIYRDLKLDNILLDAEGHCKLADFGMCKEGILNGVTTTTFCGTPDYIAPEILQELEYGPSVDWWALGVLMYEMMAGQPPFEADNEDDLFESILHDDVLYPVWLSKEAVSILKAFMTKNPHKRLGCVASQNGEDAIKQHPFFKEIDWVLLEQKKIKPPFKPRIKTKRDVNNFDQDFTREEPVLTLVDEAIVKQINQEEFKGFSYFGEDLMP
Sequence of Serine/threonine-protein kinase NIM1 (Homo sapiens) (Q8IY84 whole entry): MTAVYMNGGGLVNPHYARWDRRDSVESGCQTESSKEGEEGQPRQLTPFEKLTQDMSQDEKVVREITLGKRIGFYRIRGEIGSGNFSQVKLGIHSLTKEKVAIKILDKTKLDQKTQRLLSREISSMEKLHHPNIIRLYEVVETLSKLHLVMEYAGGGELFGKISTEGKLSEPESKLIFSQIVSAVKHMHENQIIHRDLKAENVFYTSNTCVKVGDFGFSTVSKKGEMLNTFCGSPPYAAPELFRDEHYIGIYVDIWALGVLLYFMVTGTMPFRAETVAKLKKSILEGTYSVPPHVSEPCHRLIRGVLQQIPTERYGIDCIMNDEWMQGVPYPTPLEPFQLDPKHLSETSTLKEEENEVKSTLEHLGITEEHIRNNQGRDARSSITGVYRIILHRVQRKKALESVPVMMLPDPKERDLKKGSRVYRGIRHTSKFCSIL
Sequence of Non-receptor tyrosine-protein kinase TYK2 (Homo sapiens) (P29597 whole entry): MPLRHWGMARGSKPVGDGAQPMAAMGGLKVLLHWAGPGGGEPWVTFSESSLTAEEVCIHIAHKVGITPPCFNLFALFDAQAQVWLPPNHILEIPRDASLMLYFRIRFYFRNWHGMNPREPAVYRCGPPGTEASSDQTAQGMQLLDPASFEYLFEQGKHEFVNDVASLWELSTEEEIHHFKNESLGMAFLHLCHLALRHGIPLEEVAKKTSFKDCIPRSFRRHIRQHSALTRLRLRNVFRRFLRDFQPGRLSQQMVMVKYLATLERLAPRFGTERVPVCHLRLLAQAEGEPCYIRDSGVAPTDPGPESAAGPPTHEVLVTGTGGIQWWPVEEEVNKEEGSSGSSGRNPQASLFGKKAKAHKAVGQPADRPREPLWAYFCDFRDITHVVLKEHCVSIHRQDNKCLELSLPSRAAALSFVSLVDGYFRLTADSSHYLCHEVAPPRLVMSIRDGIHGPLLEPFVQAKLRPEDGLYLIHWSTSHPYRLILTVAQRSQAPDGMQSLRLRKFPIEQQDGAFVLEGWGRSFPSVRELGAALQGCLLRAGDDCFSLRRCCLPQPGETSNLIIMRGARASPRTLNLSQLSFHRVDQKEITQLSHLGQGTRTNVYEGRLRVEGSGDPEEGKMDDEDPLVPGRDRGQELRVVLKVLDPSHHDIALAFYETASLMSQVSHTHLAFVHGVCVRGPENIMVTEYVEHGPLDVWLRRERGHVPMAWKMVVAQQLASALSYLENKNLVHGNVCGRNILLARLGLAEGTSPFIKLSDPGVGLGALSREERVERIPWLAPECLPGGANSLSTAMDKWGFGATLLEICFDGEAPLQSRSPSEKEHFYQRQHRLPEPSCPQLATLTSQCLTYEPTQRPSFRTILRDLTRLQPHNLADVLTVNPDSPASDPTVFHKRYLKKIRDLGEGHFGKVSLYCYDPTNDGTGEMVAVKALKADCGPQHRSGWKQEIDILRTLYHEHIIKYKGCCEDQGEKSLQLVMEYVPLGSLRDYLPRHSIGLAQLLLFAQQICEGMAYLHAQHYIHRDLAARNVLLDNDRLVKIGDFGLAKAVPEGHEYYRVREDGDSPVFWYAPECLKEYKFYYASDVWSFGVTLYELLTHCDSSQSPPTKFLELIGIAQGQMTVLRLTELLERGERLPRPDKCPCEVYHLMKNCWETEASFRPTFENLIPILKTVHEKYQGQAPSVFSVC
Sequence of Uncharacterized serine/threonine-protein kinase SBK3 (Homo sapiens) (P0C264 whole entry): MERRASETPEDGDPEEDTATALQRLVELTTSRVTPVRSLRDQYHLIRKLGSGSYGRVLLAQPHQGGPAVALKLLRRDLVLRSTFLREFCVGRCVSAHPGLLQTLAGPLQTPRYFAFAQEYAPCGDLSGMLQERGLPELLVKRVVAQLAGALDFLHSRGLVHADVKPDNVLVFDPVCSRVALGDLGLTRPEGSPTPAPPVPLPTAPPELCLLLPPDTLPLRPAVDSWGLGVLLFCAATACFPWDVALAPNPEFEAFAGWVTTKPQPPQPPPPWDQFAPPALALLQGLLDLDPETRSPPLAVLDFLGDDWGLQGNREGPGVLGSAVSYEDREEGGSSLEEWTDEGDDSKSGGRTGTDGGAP
Sequence of cGMP-dependent protein kinase 1 (Homo sapiens) (Q13976 whole entry): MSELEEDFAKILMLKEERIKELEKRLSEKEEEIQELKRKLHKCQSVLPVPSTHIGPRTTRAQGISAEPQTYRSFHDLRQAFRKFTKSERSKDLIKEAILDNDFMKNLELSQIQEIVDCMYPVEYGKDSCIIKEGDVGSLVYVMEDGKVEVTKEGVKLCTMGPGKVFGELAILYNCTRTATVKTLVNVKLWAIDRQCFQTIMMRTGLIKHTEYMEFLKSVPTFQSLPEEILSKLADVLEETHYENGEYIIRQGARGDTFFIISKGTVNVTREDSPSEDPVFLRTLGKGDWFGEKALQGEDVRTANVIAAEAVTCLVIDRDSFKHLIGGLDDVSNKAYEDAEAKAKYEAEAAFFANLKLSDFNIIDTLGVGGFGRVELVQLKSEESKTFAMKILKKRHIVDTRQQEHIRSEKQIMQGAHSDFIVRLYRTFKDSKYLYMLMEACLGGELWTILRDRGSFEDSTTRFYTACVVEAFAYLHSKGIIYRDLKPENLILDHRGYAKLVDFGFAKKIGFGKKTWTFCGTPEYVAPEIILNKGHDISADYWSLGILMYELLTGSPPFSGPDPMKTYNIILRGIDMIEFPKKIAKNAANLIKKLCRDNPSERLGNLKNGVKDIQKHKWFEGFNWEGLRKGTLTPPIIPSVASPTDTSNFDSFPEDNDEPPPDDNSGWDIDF
Sequence of Cyclin-dependent kinase 3 (Homo sapiens) (Q00526 whole entry, looked up): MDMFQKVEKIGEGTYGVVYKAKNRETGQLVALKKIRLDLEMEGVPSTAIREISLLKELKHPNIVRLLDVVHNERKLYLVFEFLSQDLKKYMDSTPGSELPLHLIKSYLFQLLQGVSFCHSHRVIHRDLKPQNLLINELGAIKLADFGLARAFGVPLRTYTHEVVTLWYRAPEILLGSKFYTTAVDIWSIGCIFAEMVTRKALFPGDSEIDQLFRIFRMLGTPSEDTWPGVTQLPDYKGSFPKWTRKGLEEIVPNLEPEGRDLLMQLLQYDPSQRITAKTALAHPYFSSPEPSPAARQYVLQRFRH

Q: For O=C(NCc1ncc(C(F)(F)F)cc1Cl)c1ccc2c(c1)C1(CCS(=O)(=O)CC1)[C@H](C1CC1)N2S(=O)(=O)c1ccc(F)cc1 [BAY-784], which residual activity [1] is on record?
A: Its residual activity is 100%.

Q: What about the residual activity [2] of the same compound?
A: Its residual activity is 69%.

Q: What about the residual activity [3] of the same compound?
A: Its residual activity is 100%.

Q: And the residual activity [4]?
A: The residual activity was 100%.

Q: And the residual activity [5]?
A: The residual activity was 78%.

Q: What about the residual activity [6] of the same compound?
A: Its residual activity is 98%.

Q: What about the residual activity [7] of the same compound?
A: The residual activity was 89%.

Q: What about the residual activity [8] of the same compound?
A: The residual activity was 79%.

Q: And the residual activity [9]?
A: The residual activity was 83%.

Q: And the residual activity [10]?
A: The residual activity was 100%.

Q: And the residual activity [11]?
A: Its residual activity is 88%.

Q: And the residual activity [12]?
A: The residual activity was 69%.

Q: And the residual activity [13]?
A: The residual activity was 79%.

Q: And the residual activity [14]?
A: Its residual activity is 100%.

Q: What about the residual activity [15] of the same compound?
A: Its residual activity is 100%.

Q: And the residual activity [16]?
A: The residual activity was 87%.

Q: What about the residual activity [17] of the same compound?
A: Its residual activity is 100%.

Q: What about the residual activity [18] of the same compound?
A: Its residual activity is 87%.

Q: What about the inhibition [19] of the same compound?
A: The inhibition was -6.43%.

Q: What about the residual activity [20] of the same compound?
A: Its residual activity is 66%.

Q: What about the residual activity [21] of the same compound?
A: The residual activity was 70%.

Q: What about the residual activity [22] of the same compound?
A: Its residual activity is 100%.

Q: And the residual activity [23]?
A: The residual activity was 83%.

Q: And the residual activity [24]?
A: Its residual activity is 82%.

Q: What about the residual activity [25] of the same compound?
A: Its residual activity is 75%.

Q: What about the residual activity [26] of the same compound?
A: Its residual activity is 82%.

Q: What about the residual activity [27] of the same compound?
A: Its residual activity is 100%.

Q: And the residual activity [28]?
A: The residual activity was 100%.

Q: And the residual activity [29]?
A: Its residual activity is 100%.

Q: And the residual activity [30]?
A: The residual activity was 89%.

Q: What about the residual activity [31] of the same compound?
A: The residual activity was 91%.

Q: And the residual activity [32]?
A: The residual activity was 93%.

Q: And the residual activity [33]?
A: Its residual activity is 100%.

Q: What about the residual activity [34] of the same compound?
A: The residual activity was 100%.

Q: What about the residual activity [35] of the same compound?
A: The residual activity was 99%.

Q: And the residual activity [36]?
A: The residual activity was 86%.

Q: And the residual activity [37]?
A: Its residual activity is 100%.

Q: What about the residual activity [38] of the same compound?
A: The residual activity was 100%.

Q: Which residual activity [1] does the source give for O=C(NCc1ncc(C(F)(F)F)cc1Cl)c1ccc2c(c1)C1(CCS(=O)(=O)CC1)[C@@H](C1CC1)N2S(=O)(=O)c1ccc(F)cc1 [BAY-786] here?
A: Its residual activity is 85%.

Q: What about the residual activity [2] of the same compound?
A: The residual activity was 86%.

Q: And the residual activity [3]?
A: Its residual activity is 100%.

Q: And the residual activity [4]?
A: Its residual activity is 100%.

Q: What about the residual activity [5] of the same compound?
A: Its residual activity is 100%.

Q: And the residual activity [6]?
A: Its residual activity is 100%.

Q: And the residual activity [7]?
A: The residual activity was 100%.

Q: What about the residual activity [8] of the same compound?
A: Its residual activity is 73%.

Q: What about the residual activity [9] of the same compound?
A: The residual activity was 78%.

Q: And the residual activity [10]?
A: Its residual activity is 100%.

Q: What about the residual activity [11] of the same compound?
A: The residual activity was 78%.

Q: And the residual activity [12]?
A: Its residual activity is 76%.

Q: And the residual activity [13]?
A: Its residual activity is 76%.

Q: And the residual activity [14]?
A: Its residual activity is 89%.

Q: And the residual activity [15]?
A: The residual activity was 83%.

Q: And the residual activity [16]?
A: The residual activity was 86%.

Q: What about the residual activity [17] of the same compound?
A: The residual activity was 68%.

Q: What about the residual activity [18] of the same compound?
A: The residual activity was 90%.

Q: What about the inhibition [19] of the same compound?
A: The inhibition was -1.92%.

Q: And the residual activity [20]?
A: The residual activity was 66%.

Q: And the residual activity [21]?
A: Its residual activity is 87%.

Q: And the residual activity [22]?
A: The residual activity was 84%.

Q: And the residual activity [23]?
A: Its residual activity is 74%.

Q: What about the residual activity [24] of the same compound?
A: Its residual activity is 77%.

Q: What about the residual activity [25] of the same compound?
A: The residual activity was 76%.

Q: What about the residual activity [26] of the same compound?
A: The residual activity was 87%.

Q: What about the residual activity [27] of the same compound?
A: Its residual activity is 100%.

Q: And the residual activity [28]?
A: Its residual activity is 83%.

Q: What about the residual activity [29] of the same compound?
A: The residual activity was 89%.

Q: And the residual activity [30]?
A: Its residual activity is 88%.

Q: What about the residual activity [31] of the same compound?
A: Its residual activity is 92%.

Q: What about the residual activity [32] of the same compound?
A: The residual activity was 72%.

Q: And the residual activity [33]?
A: The residual activity was 95%.

Q: And the residual activity [34]?
A: Its residual activity is 95%.

Q: What about the residual activity [35] of the same compound?
A: Its residual activity is 100%.

Q: What about the residual activity [36] of the same compound?
A: Its residual activity is 94%.

Q: What about the residual activity [37] of the same compound?
A: Its residual activity is 41%.

Q: What about the residual activity [38] of the same compound?
A: The residual activity was 80%.
